Measurements published in article PMC4457528, “Identification of Novel Small Molecule Inhibitors of Oncogenic RET Kinase” (PLoS ONE, 2015).
Read-outs that look alike come from different tables or passages of the source.

What was measured:
Experiment in all cases: KinomeScan kinase panel, single concentration 10 µM
Format in all cases: binding
KinomeScan kinase panel [1] = target: T1, KinomeScan kinase panel (Homo sapiens, UniProt O14578); settings: CIT, 10 µM
T1 construct: purchased DiscoveRx (KinomeScan)

KinomeScan kinase panel [2] = target: T2, KinomeScan kinase panel (Homo sapiens, UniProt O15146); settings: MUSK, 10 µM; read-out: score (%)
T2 construct: purchased DiscoveRx (KinomeScan)
T2 sequence (O15146 24-869): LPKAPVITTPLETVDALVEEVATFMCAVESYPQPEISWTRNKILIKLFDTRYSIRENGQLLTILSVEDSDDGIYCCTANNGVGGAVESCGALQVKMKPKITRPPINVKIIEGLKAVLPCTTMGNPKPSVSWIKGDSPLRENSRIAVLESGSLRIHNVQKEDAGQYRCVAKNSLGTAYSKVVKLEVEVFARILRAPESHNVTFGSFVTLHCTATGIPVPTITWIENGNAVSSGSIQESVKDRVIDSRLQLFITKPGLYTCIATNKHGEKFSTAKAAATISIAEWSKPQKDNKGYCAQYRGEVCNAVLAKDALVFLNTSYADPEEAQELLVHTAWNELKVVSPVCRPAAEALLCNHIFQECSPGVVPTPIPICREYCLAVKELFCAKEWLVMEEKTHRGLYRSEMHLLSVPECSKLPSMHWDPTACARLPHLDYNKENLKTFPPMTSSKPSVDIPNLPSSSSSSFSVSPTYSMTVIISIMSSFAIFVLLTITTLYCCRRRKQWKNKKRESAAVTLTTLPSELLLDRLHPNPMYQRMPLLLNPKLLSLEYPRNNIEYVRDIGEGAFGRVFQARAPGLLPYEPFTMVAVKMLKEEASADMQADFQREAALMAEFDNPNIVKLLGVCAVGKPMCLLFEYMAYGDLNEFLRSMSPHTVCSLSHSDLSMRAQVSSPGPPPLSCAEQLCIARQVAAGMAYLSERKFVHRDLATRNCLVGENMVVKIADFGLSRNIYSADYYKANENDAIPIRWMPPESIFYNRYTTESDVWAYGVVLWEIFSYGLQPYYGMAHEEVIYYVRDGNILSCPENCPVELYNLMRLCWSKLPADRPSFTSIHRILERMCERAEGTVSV

KinomeScan kinase panel [3] = target: T3, KinomeScan kinase panel (Homo sapiens, UniProt O75676); settings: 10 µM, read-out: score (%)
T3 construct: purchased DiscoveRx (KinomeScan)

KinomeScan kinase panel [4] = target: T4, KinomeScan kinase panel (Homo sapiens, UniProt P00519, E255K); settings: 10 µM, read-out: score (%)
T4 construct: purchased DiscoveRx (KinomeScan)

KinomeScan kinase panel [5] = target: T5, KinomeScan kinase panel (Homo sapiens, UniProt P07949); settings: 10 µM, read-out: score (%)
T5 construct: purchased DiscoveRx (KinomeScan)

KinomeScan kinase panel [6] = target: T6, KinomeScan kinase panel (Homo sapiens, UniProt P37023); settings: ACVRL1, 10 µM; read-out: score (%)
T6 construct: purchased DiscoveRx (KinomeScan)

KinomeScan kinase panel [7] = target: T7, KinomeScan kinase panel (Homo sapiens, UniProt P42681); settings: kinase TXK; 10 µM; read-out: score (%)
T7 construct: purchased DiscoveRx (KinomeScan)
T7 sequence (P42681 1-527): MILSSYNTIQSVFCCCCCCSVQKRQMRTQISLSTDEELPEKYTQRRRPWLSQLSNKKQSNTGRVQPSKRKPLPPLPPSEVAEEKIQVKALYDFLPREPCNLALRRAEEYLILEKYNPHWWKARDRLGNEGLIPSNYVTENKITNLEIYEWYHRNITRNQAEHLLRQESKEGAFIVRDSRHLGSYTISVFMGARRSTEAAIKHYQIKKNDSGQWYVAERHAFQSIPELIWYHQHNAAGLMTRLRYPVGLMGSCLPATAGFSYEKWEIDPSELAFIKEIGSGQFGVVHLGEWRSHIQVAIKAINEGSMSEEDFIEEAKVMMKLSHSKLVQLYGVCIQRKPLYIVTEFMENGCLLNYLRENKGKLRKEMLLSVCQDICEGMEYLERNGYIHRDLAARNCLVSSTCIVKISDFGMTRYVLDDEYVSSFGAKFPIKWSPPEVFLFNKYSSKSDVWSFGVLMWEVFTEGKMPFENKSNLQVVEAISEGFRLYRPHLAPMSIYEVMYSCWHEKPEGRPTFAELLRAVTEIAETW

KinomeScan kinase panel [8] = target: T8, KinomeScan kinase panel (Homo sapiens, UniProt P78362); settings: read-out: score (%)
T8 construct: purchased DiscoveRx (KinomeScan)

KinomeScan kinase panel [9] = target: T9, KinomeScan kinase panel (Homo sapiens, UniProt Q13131); settings: AMPK-alpha1, 10 µM; read-out: score (%)
T9 construct: purchased DiscoveRx (KinomeScan)

KinomeScan kinase panel [10] = target: T10, KinomeScan kinase panel (Homo sapiens, UniProt Q16620); settings: 10 µM, read-out: score (%)
T10 construct: purchased DiscoveRx (KinomeScan)

KinomeScan kinase panel [11] = target: T11, KinomeScan kinase panel (Homo sapiens, UniProt Q7KZI7); settings: MARK2, 10 µM; read-out: score (%)
T11 construct: purchased DiscoveRx (KinomeScan)

KinomeScan kinase panel [12] = target: T12, KinomeScan kinase panel (Homo sapiens, UniProt Q8TD08); settings: ERK8, 10 µM; read-out: score (%)
T12 construct: purchased DiscoveRx (KinomeScan)
T12 sequence (Q8TD08 1-544): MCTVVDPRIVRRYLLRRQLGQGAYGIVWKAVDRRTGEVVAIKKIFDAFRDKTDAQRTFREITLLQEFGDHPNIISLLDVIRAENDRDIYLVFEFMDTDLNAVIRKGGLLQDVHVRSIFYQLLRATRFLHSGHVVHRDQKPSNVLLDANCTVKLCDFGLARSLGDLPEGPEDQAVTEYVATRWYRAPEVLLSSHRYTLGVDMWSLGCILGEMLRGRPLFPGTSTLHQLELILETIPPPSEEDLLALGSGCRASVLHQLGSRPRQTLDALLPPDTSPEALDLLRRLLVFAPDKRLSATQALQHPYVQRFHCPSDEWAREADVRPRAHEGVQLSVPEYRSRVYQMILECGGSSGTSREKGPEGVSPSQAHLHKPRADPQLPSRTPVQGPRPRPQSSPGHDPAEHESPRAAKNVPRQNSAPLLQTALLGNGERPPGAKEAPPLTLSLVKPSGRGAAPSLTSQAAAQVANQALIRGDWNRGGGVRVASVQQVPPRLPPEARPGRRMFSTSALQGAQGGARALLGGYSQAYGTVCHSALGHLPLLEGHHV

KinomeScan kinase panel [13] = target: T13, KinomeScan kinase panel (Homo sapiens, UniProt Q9Y2H1); settings: NDR2, 10 µM; read-out: score (%)
T13 construct: purchased DiscoveRx (KinomeScan)

[14] = kinase RPS6KA4(Kin.Dom.1-N-terminal)
[15] = kinase RPS6KA4(Kin.Dom.2-C-terminal)

T10 sequence (Q16620 32-822): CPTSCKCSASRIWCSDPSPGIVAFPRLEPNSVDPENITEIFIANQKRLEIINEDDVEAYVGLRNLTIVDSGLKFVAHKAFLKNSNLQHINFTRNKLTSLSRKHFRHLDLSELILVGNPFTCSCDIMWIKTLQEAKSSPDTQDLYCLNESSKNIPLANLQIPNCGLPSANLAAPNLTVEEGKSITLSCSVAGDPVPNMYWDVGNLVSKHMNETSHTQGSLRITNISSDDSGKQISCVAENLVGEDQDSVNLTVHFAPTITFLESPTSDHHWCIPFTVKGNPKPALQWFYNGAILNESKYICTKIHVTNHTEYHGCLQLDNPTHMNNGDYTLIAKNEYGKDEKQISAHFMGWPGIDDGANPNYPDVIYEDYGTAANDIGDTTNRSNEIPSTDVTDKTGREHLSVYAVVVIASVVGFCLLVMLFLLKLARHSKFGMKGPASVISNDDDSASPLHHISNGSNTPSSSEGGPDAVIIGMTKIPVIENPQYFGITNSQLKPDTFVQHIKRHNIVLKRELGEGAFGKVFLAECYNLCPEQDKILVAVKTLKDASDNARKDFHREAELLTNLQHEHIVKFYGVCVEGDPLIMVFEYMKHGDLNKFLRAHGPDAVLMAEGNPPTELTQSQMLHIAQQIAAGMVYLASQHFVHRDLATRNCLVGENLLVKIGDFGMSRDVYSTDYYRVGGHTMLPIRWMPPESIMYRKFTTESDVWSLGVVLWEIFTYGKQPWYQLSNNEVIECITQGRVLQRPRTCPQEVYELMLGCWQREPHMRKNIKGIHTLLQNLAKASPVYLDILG
T9 sequence (Q13131 whole entry): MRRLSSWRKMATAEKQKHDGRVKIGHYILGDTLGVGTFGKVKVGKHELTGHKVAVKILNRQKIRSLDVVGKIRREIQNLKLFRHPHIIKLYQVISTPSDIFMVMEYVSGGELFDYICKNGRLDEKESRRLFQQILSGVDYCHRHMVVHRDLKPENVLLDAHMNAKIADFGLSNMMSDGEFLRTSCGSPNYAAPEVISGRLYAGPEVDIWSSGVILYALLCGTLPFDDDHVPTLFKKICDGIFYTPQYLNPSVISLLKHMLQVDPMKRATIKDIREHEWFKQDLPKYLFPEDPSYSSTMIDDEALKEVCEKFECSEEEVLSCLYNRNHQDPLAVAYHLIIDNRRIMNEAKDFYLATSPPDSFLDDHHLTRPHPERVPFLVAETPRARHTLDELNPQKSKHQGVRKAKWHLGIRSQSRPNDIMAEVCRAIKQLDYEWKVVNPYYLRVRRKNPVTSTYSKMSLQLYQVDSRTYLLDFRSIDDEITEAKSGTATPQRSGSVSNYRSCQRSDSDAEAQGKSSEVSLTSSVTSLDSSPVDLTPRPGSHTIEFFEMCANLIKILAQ
T4 sequence (P00519 whole entry E255K): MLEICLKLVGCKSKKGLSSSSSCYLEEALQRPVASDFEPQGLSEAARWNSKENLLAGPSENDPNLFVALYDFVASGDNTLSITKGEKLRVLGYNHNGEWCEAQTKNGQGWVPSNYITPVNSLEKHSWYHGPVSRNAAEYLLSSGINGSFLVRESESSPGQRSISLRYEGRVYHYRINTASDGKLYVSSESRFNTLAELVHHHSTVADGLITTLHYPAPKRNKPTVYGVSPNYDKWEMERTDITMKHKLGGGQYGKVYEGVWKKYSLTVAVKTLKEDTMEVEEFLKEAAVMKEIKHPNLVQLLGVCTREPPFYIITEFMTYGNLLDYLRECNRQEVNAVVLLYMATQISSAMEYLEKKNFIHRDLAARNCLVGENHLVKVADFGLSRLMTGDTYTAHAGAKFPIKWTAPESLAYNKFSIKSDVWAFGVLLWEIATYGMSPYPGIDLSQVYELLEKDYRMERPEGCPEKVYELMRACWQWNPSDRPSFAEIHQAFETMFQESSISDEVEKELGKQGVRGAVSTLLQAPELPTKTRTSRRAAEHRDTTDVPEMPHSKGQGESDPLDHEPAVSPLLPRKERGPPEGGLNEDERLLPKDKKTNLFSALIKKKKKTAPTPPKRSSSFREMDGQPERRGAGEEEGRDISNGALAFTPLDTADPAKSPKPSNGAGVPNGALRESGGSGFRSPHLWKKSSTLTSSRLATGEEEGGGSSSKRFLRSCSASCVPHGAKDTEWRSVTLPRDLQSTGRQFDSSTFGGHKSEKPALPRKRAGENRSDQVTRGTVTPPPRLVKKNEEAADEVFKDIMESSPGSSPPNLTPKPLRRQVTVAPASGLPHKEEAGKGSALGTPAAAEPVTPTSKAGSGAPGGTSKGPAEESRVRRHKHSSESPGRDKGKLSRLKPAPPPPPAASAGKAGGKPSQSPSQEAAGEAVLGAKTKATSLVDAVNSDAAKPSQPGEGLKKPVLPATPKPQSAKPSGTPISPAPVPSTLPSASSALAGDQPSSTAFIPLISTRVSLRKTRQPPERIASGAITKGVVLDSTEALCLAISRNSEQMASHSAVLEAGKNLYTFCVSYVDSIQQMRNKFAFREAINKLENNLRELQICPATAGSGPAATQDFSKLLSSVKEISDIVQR
T1 sequence (O14578 whole entry): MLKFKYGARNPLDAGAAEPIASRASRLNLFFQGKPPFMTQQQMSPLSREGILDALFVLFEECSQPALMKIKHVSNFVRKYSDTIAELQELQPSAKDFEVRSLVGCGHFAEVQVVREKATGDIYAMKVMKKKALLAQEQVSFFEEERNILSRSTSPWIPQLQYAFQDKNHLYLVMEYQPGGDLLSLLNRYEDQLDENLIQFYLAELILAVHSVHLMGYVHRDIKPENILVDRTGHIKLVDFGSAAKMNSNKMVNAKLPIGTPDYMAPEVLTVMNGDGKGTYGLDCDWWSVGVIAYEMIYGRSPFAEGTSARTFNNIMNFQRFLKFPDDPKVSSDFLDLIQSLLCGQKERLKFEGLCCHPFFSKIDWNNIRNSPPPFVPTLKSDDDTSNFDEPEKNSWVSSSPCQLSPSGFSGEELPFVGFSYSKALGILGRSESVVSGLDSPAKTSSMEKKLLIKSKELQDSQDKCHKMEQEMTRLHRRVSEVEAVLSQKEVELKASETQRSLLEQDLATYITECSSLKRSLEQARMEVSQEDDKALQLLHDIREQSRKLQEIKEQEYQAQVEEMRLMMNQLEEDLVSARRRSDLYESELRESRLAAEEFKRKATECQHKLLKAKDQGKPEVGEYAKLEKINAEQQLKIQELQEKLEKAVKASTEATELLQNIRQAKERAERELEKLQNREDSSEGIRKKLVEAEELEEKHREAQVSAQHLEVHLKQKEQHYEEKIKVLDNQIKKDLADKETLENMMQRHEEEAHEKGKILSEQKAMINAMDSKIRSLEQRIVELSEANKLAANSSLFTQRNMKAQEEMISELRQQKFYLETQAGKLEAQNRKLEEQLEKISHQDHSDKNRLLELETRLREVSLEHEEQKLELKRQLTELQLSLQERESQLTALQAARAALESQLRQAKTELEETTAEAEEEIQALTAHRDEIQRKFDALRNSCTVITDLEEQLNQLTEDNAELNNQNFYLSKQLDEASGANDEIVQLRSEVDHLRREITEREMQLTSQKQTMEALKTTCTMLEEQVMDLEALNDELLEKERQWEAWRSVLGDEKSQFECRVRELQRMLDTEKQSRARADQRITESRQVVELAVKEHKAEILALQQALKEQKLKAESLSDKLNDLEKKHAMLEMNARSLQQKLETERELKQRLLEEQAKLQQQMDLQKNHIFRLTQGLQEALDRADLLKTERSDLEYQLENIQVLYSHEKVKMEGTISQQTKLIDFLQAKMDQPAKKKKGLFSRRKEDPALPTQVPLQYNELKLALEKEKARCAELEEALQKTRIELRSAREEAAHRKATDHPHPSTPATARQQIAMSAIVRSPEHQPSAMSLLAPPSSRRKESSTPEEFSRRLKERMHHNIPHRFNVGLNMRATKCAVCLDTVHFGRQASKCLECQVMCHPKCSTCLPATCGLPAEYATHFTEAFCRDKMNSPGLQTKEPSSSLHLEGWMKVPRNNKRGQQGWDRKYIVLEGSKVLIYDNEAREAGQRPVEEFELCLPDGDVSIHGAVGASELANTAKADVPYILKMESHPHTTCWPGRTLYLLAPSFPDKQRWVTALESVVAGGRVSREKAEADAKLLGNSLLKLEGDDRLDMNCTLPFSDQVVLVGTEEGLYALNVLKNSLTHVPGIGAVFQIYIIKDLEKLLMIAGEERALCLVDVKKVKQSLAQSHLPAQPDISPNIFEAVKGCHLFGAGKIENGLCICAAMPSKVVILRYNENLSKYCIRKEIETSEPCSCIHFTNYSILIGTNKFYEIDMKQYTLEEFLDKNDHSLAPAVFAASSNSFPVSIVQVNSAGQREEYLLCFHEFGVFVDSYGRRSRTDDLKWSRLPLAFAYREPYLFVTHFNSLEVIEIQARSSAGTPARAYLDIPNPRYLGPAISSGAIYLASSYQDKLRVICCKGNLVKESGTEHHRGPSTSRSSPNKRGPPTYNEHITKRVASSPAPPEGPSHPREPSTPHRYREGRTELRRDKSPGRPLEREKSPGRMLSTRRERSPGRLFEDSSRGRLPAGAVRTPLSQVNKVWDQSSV
T6 sequence (P37023 22-503): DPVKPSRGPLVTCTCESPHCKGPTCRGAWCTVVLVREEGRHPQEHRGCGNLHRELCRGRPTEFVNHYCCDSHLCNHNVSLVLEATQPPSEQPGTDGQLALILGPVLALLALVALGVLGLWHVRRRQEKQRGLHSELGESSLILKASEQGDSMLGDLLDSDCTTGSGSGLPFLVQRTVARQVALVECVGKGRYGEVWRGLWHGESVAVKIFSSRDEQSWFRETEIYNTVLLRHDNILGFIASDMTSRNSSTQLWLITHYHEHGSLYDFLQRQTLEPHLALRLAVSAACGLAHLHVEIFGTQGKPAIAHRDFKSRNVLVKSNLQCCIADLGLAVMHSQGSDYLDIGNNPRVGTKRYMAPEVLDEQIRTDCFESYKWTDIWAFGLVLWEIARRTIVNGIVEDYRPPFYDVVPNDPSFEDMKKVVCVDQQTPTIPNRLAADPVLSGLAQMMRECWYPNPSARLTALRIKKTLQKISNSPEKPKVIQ

SMILES	score (%) (KinomeScan kinase panel [1])	remaining binding at 10 µM (KinomeScan kinase panel [2])	remaining binding at 10 µM (KinomeScan kinase panel [3]; [14])	remaining binding at 10 µM (KinomeScan kinase panel [3]; [15])	remaining binding at 10 µM (KinomeScan kinase panel [4]; ABL1(E255K))	remaining binding at 10 µM (KinomeScan kinase panel [5]; RET)	remaining binding at 10 µM (KinomeScan kinase panel [6])	remaining binding at 10 µM (KinomeScan kinase panel [7])	remaining binding at 10 µM (KinomeScan kinase panel [8]; kinase SRPK2, 10 µM)	remaining binding at 10 µM (KinomeScan kinase panel [9])	remaining binding at 10 µM (KinomeScan kinase panel [10]; kinase TRKB)	remaining binding at 10 µM (KinomeScan kinase panel [11])	remaining binding at 10 µM (KinomeScan kinase panel [12])	remaining binding at 10 µM (KinomeScan kinase panel [13])	remaining binding at 10 µM (KinomeScan kinase panel [3]; RPS6KA4(Kin.Dom.1))	remaining binding at 10 µM (KinomeScan kinase panel [3]; RPS6KA4(Kin.Dom.2))	remaining binding at 10 µM (KinomeScan kinase panel [8]; SRPK2, 10 µM)	remaining binding at 10 µM (KinomeScan kinase panel [10]; TRKB)	remaining binding at 10 µM (KinomeScan kinase panel [4]; ABL1(E255K)-phosphorylated)	remaining binding at 10 µM (KinomeScan kinase panel [5]; kinase RET)
CCN1CCN(Cc2ccc(NC(=O)c3ccc(C)c(NC(=O)c4cncc(-c5cccs5)c4)c3)cc2C(F)(F)F)CC1 [ALW-II-41-27]	14%	0.1%	6.3%	> 30%	7.2%	0.05%	> 30%	1.8%	> 30%	> 30%	4%	> 30%	> 30%	11%	–	–	–	–	–	–
CCN1CCN(Cc2ccc(NC(=O)c3ccc(C)c(/C=C/c4cnc5[nH]ccc5c4Cl)c3)cc2C(F)(F)F)CC1 [HG-6-63-01, (E)-3-(2-(4-chloro-1H-pyrrolo[2,3-b]pyridin-5-yl)vinyl)-N-(4-((4-ethylpiperazin-1-yl)methyl)-3-(trifluoromethyl)phenyl)-4-methylbenzamide]	0.2%	0.05%	–	–	1.3%	0%	> 30%	0.9%	–	18%	–	> 30%	> 30%	> 30%	> 30%	> 30%	28%	1.6%	–	–
CCN1CCN(Cc2ccc(NC(=O)c3ccc(C)c(C#Cc4cccnc4)c3)cc2C(F)(F)F)CC1 [XMD15-44]	0%	0.05%	30%	99%	–	–	> 30%	0.3%	81%	1.2%	1.6%	> 30%	1.8%	8.7%	–	–	–	–	0.05%	0%
